Legend:
Rat Steroid C17,20-lyase = biological target: T1, Rat Steroid C17,20-lyase (Rattus norvegicus, UniProt P11715); assay: Assay of inhibitory activity on rat steroid C17,20-lyase (testis microsomes, [1,2-3H]-17-α-hydroxyprogesterone substrate, TLC); assay type: biochemical; conditions: rat testis microsomes (7 μg/10 μl), 10 nM [1,2-3H]-17-α-hydroxyprogesterone, NADPH, pH 7.4, 37° C., 7 minutes; products androstenedione and testosterone
T1 construct: Testes were excised from 13-week-old male SD rats, homogenized, and centrifuged to give microsomes; from tissue; host or cells: testis microsomes of 13-week-old male SD rats
T1 sequence (P11715 1-507): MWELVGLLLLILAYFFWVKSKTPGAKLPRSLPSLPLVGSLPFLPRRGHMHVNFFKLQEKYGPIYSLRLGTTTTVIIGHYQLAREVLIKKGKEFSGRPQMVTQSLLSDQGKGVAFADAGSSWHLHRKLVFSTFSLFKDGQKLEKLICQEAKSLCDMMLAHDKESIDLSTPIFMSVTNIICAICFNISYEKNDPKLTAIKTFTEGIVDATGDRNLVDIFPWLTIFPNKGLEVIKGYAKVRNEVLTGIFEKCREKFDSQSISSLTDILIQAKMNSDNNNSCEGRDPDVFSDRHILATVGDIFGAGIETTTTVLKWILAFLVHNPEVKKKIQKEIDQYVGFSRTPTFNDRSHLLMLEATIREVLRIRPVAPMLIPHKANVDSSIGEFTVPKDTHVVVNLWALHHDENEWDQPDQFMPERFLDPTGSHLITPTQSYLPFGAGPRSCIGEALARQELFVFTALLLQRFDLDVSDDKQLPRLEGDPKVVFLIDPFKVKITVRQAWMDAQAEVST
Experimental: Assay of Inhibitory Activity on Rat Steroid C17,20-lyase
The activity was determined according to The Prostate, vol. 26, 140-150 (1995).
Testes were excised from 13-week-old male SD rats, homogenized, and centrifuged to give microsomes. [1,2-^3H]-17-α-hydroxyprogesterone having a final concentration of 10 nM, NADPH solution and test compounds were dissolved in 10 μl of 100 mM phosphate buffer (pH 7.4) and microsome protein (7 μg/10 μl) was added. The reaction mixture was incubated at 37° C. for 7 minutes. Ethyl acetate (40 μl) was added and the mixture was centrifuged. The substrate and the products (androstenedione and testosterone) in the supernatant were separated by silica gel thin layer chromatography (TLC). The spots were detected and quantitatively determined by BAS 2000 Bioimage analyzer. The concentration of the test compounds necessary to reduce the amount of the products by 50% (IC50) relative to the amount of the products without test compound (control) as 100% was calculated, and shown in Table 1.

[1] = test system: Testosterone Synthesis in Rats; assay: Assay of inhibitory activity on testosterone synthesis in rats (serum testosterone by radioimmunoassay); assay type: in vivo, rat; conditions: 50 mg/kg orally, 9-week-old male SD rats, serum testosterone two hours after administration, as percentage of control group
Experimental: Assay of Inhibitory Activity on Testosterone Synthesis in Rats
Test compounds (50 mg/kg) were orally administered to 9-week-old male SD (Sprague Dawley) rats. Two hours after administration of the compounds, blood was drawn and testosterone concentration in the obtained serum was measured by radioimmunoassay. The percentage (T/C, %) of the testosterone concentration of test compounds administration group to that of the control group was calculated, and taken as the inhibitory activity on testosterone synthesis.

CCC(O)(c1cccc(-c2ccc(F)cc2)c1)c1c[nH]cn1 (stereo not drawn) [Example 27, 1-[4′-fluoro[1,1′-biphenyl]-3-yl]-1-(1H-imidazol-4-yl)-1-propanol]
IC50 (Rat Steroid C17,20-lyase): 11 nM

CC(C)C(O)(c1cccc(-c2ccccc2)c1)c1c[nH]cn1 (stereo not drawn) [Example 6, 1-[1,1′-biphenyl]-3-yl-1-(1H-imidazol-4-yl)-2-methyl-1-propanol]
IC50 (Rat Steroid C17,20-lyase): 15 nM | testosterone synthesis inhibitory activity (T/C, %) [1]: 4.3%

CC(C)C(O)(c1cccc(-c2ccc(F)cc2)c1)c1c[nH]cn1 (stereo not drawn) [Example 13, 1-(4′-fluoro[1,1′-biphenyl]-3-yl)-1-(1H-imidazol-4-yl)-2-methyl-1-propanol]
IC50 (Rat Steroid C17,20-lyase): 8.3 nM | testosterone synthesis inhibitory activity (T/C, %) [1]: 4.7%

Cc1ccccc1-c1cccc(C(O)(c2c[nH]cn2)C(C)C)c1 (stereo not drawn) [Example 17, 1-(1H-imidazol-4-yl)-2-methyl-1-(2′-methyl[1,1′-biphenyl]-3-yl)-1-propanol]
IC50 (Rat Steroid C17,20-lyase): 12 nM

COc1ccc(-c2cccc(C(O)(c3c[nH]cn3)C(C)C)c2)cc1 (stereo not drawn) [Example 9, 1-(1H-imidazol-4-yl)-1-(4′-methoxy[1,1′-biphenyl]-3-yl)-2-methyl-1-propanol]
IC50 (Rat Steroid C17,20-lyase): 10 nM | testosterone synthesis inhibitory activity (T/C, %) [1]: 4.6%

CC(C)C(O)(c1ccc(-c2ccc(F)cc2)cc1)c1c[nH]cn1 (stereo not drawn) [Example 4, 1-(4′-fluoro[1,1′-biphenyl]-4-yl)-1-(1H-imidazol-4-yl)-2-methyl-1-propanol]
IC50 (Rat Steroid C17,20-lyase): 28 nM

From US6518257B1, “1-substituted phenyl-1-(1h-imidazol-4-yl) alcohols, process for producing the same and use thereof” (Takeda Chemical Industries, Ltd., priority 1999, dated 2003)
